This note sets out measurements from patent US20110091531A1, “Cooling Composition” (GIV AUDAN SA, priority 2008, published 2011).

This data set is described as follows: Solubility of Evercool 180 alone in solvent under regular conditions. It is filed as physicochemical.

In turn, `CC(C)[C@@H]1CC[C@@H](C)C[C@H]1C(=O)Nc1ccc(CC#N)cc1` [Evercool™ 180, (1R,2S,5R)—N-(4-(cyanomethyl)phenyl)-2-isopropyl-5-methylcyclohexane-carboxamide] showed a Soluble in menthol (at 65° C. under regular conditions) of 17%. Besides, under “at room temperature under regular conditions”, the “Soluble in peppermint oil” value is recorded as 12%. Further, the “Solubility in Orange oil (1× Brazilian)” value (under regular conditions) was over 1%.
